Data: patent publication US20160279110A1, “COMPOSITIONS AND METHODS FOR TREATING CANCER” (UNIVERSITY OF ROCHESTER, priority 2015, published 2016)

System: UPF1
Experiment: Western blot of UPF1 cleavage and phosphorylation in MCF7 cells
Assay type: cell-based, human
Description: MCF7 cells either were (top line) or were not (bottom line) pretreated with 5 μM doxorubicin for 1 h before addition of 3 μg ml^−1 actinomycin D to halt transcription. Cells were collected at the indicated times after actinomycin D addition. […] Error bars=S.E.M, n==4 independent biological quadruplicates. […] HeLa Tet-off cells were transfected with plasmids encoding human β-Gl Norm mRNA and MUP mRNA or β-Gl Ter mRNA and MUP mRNA. β-Gl Norm and β-Gl 39 Ter mRNA transcription occurs under the agency of the non-stress-responsive Tet-off promoter. Cells were either pretreated with nothing (top), 50 μM doxorubicin for 1 h (middle) or 50 μg ml^−1 puromycin for 3 h (bottom) before transcriptional shut-off with 2 μg ml^−1 doxycycline. Cell aliquots were removed at the indicated “chase” time points, and RT-qPCR was used to assess the remaining levels of β-Gl Norm and β-Gl Ter mRNAs, each after normalization to MUP mRNA.
UPF1 CP may result from cleavage of endogenous UPF1 or the transfected construct, but the use of anti-FLAG allows unambiguous assignment of UPF1-FLAG CP as derived from MYC-UPF1-FLAG. α, anti; h, hour(s). […] To serve as molecular weight standards for UPF1 CP, lysates of MCF7 cells transiently expressing a UPF1-FLAG protein encompassing the residues specified were also analyzed. […] The D37 cleavage site encompassing P4-P1 residues is boxed. […] Immunoblots are representative of at least 2 independent experiments.
Cells were lysed, and protein was isolated using hypotonic buffer that consists of 10 mM Tris-C1, pH 7.4, 10 mM NaCl, 2 mM EDTA, 0.5% Triton X-100, 2 mM benzamidine, 1 mM PMSF, NEM (50 μg/mL), 1× phosphatase inhibitor cocktail (Roche), and 1× protease inhibitor cocktail (Roche; Basel, Switzerland). After 10 minutes of incubation at 4° C., NaCl was added to 150 mM, and lysates were cleared by centrifugation. Proteins were resolved using SDS-PAGE, transferred to Hybond ECL nitrocellulose (GE), and probed using antibody that recognizes one of the following: UPF1(1-416) (1:2000^8), p-UPF1 S1116 (1:1000; Millipore 07-1016; Billerica, Mass.), p-UPF1 S1089 (1:1000; Millipore 07-1015), Calnexin (1:2000; Enzo Life Sciences ADISPA860; Farmingdale, N.Y.), UPF2 (1:200; Santa Cruz Biotechnology C18 20227; Dallas, Tex.), UPF3× and 3 (1:1000^8), MLN51 (1:1000; Bethyl Laboratories A302-471; Montgomery, Tex.), GAPDH (1:200; Santa Cruz Biotechnology 25778), CBP80 (1:1000; Bethyl Laboratories A301-793), SMG5 (1:1000; Abcam 33033; Cambridge, United Kingdom), SMG6 (1:1000; Abcam 57539), SMG7 (1:1000; Bethyl Laboratories 302-170A), SMG1 (1:1000; Cell Signaling D42D5; Danvers, Mass.), Cleaved Caspase 3 (1:1000; Cell Signaling 9664), Cleaved Caspase 9 (1:1000; Cell Signaling 7237), PARP (1:1000; Cell Signaling 9542), Cleaved PARP (1:200; Santa Cruz Biotechnology sc56196) PLC-γ1 (1:200; Santa Cruz Biotechnology 58407), α-Tubulin (1:1000; Cell Signaling 3873P), FLAG (1:5000; Sigma, clone M2 a5982), HA (1:5000; Roche, clone 3F10 12013819001), or MYC (1:1000; Cell Signaling, clone 9B110 2276). Immunoreactivity was assessed using SuperSignal West Pico or Femto (Pierce Biotechnology; Waltham, Mass.).
Biochemical changes to the key NMD factor, UPF1, that correlate with doxorubicin treatment (FIG. 1c), were examined. MCF7 cells were exposed to doxorubicin (5 μM) for varying amounts of time and cell lysates were analyzed using western blotting and an in-house generated polyclonal rabbit serum raised against the N-terminal 416 amino acids of human UPF1. […]

## COc1cccc2c1C(=O)c1c(O)c3c(c(O)c1C2=O)C[C@@](O)(C(=O)CO)C[C@@H]3O[C@H]1C[C@H](N)[C@H](O)[C@H](C)O1 [doxorubicin, Doxorubicin]
MCF7, 5 μM doxorubicin
  time at which UPF1 phosphorylation (S1116) levels diminish: ≤ 5 h
  time at which two additional UPF1 bands of greater mobility were resolved: ≤ 5 h
MCF7, 50 μM doxorubicin
  time at which higher-mobility UPF1 species were generated: ≤ 2 h
  time of production of the PARP cleavage product: 8 h
MCF7 stably transduced with MYC-UPF1-FLAG WT, 5 μM doxorubicin 16 h
  UPF1 CP level relative to uncleaved UPF1: about one-third the level of uncleaved UPF1
